Results published in patent publication US20070254907A1, “COMPOSITIONS AND METHODS FOR CONTROLLING INFESTATION” (HATCHTECH PTY LTD, priority 2003, published 2007).
Entries after “also recorded” stand apart in the source; their conditions may differ. Read-outs that look alike come from different tables or passages of the source.

Columns and labels:
Plutella xylostella eggs = assay: whole plant or invertebrate; type: in vivo; conditions: for Number hatched / Number unhatched: dipped 2-10 s, day 6 post laying
Method: The ovicidal efficacy of 2-acetyl-1-tetralone was also tested against Plutella eggs.

lice eggs = assay: whole plant or invertebrate; type: in vivo; conditions: for inhibition at 10000 µM / inhibition at 2500 µM / inhibition at 5000 µM: read-out: Percent inhibition of egg hatching; for inhibition at 2500 µM: 2.5 mM; for inhibition at 5000 µM: 5 mM
[1] = system: Helicoverpa armigera eggs; assay: Egg hatching of Helicoverpa armigera
Method: A range of concentrations were made up in water and the eggs placed in the solutions for approximately 2-10 seconds. The eggs which had been laid on cloth were then blotted dry and placed in an incubator at 26° C. for 3-4 days until hatch. Hatch rates were then assessed compared to a water only treated control (FIG. 5).
The compound was dissolved in 100% diethoxyglycol and diluted to a final concentration of 1% in water.
Several hundred Helicoverpa armigera eggs (Tatura×Toowoomba strains) were collected, that had been laid on fine mesh cloth over a 24 hour period.
Batches of Helicoverpa eggs were exposed to a specific inhibitor solution for between 2-10 seconds the excess solution drained by blotting with dry tissue paper. The egg masses were then placed in a humid box at 25 degrees until egg hatch. Control eggs were exposed to absolute methanol as described above. At day 6 post laying the eggs were assessed from the different treatments and the percentage of egg hatch determined relative to the control as shown in Table 12.
Batches of Helicoverpa eggs were then exposed to a specific inhibitor solution for between 2-10 seconds the excess solution drained by blotting with dry tissue paper. The egg masses were then placed in a humid box at 25° C. until egg hatch. Control eggs were exposed to absolute methanol as described above. At day 6 post laying the eggs were assessed from the different treatments and the percentage of egg hatch determined relative to the control as shown in Table 13.

[2] = Pediculus humanus, 24 h, treated 24 hr post egg laying
[3] = Pediculus humanus, 48 h, treated 48 hr post egg laying
[4] = Pediculus humanus, 72 h, treated 72 hr post egg laying
[5] = Pediculus humanus, 96 h, treated 96 hr post egg laying
[6] = Pediculus humanus, 120 h, treated 120 hr post egg laying
[7] = Pediculus humanus, 144 h, treated 144 hr post egg laying

SMILES: c1cnc2c(c1)ccc1cccnc12 [1,10-phenanthroline, reference compound]
- effect on egg hatching of Plutella xylostella (words) (Plutella xylostella eggs; 10 mM): significantly inhibit egg hatching
- inhibition at 1000 µM (Plutella xylostella eggs; Plutella xylostella, Table 9, 1 mM, relative to control (100% MeOH), read-out: % Inhibition): 0%
- inhibition at 10000 µM (Plutella xylostella eggs; Plutella xylostella, Table 9, 10 mM, relative to control (100% MeOH), read-out: % Inhibition): 100%
- Number hatched (Plutella xylostella eggs; Table 9, 1 mM): 15
- Number unhatched (Plutella xylostella eggs; Table 9, 1 mM): 16
- Number hatched (Plutella xylostella eggs; Table 9, 10 mM): 0
- Number unhatched (Plutella xylostella eggs; Table 9, 10 mM): 45
- inhibition of lice egg hatching following washing of eggs in water (lice eggs; 10 mM, then 1 minute wash): still highly efficacious at inhibiting lice egg hatching
- embryo development in treated eggs (lice eggs; 10 mM, a proportion of eggs): had embryos that appeared to develop normally yet failed to hatch
- inhibition of egg hatching in lice (lice eggs; 10 mM, eggs treated 5 days post laying, 10 min): significantly inhibited egg hatching
- inhibition at 1000 µM (lice eggs; Pediculus humanus, 1 mM, eggs treated 5 days post laying, 10 min, read-out: level of inhibition of egg hatching compared to controls): ~30%
- inhibition at 10000 µM (lice eggs; Pediculus humanus, 10 mM, 10 minutes, not washed, treated 24 hr post laying): 100%
- inhibition at 10000 µM (lice eggs; Pediculus humanus, 10 mM, 10 minutes, not washed, treated 48 hr post laying): 100%
- inhibition at 10000 µM (lice eggs; Pediculus humanus, 10 mM, 10 minutes, not washed, treated 72 hr post laying): 100%
- inhibition at 10000 µM (lice eggs; Pediculus humanus, 10 mM, 10 minutes, not washed, treated 96 hr post laying): 100%
- inhibition at 10000 µM (lice eggs; Pediculus humanus, 10 mM, 10 minutes, not washed, treated 120 hr post laying): 100%
- inhibition at 10000 µM (lice eggs; Pediculus humanus, 10 mM, 10 minutes, washed for 1 minute, treated 24 hr post laying): 100%
- inhibition at 10000 µM (lice eggs; Pediculus humanus, 10 mM, 10 minutes, washed for 1 minute, treated 48 hr post laying): 100%
- inhibition at 10000 µM (lice eggs; Pediculus humanus, 10 mM, 10 minutes, washed for 1 minute, treated 72 hr post laying): 100%
- inhibition at 10000 µM (lice eggs; Pediculus humanus, 10 mM, 10 minutes, washed for 1 minute, treated 96 hr post laying): 97%
- inhibition at 10000 µM (lice eggs; Pediculus humanus, 10 mM, 10 minutes, washed for 1 minute, treated 120 hr post laying): 62%
- inhibition at 2500 µM (lice eggs; [2]): 100%
- inhibition at 5000 µM (lice eggs; [2]): 100%
- inhibition at 10000 µM (lice eggs; Pediculus humanus, 24 h, 10 mM, treated 24 hr post egg laying): 100%
- inhibition at 2500 µM (lice eggs; [3]): 100%
- inhibition at 5000 µM (lice eggs; [3]): 100%
- inhibition at 10000 µM (lice eggs; Pediculus humanus, 48 h, 10 mM, treated 48 hr post egg laying): 100%
- inhibition at 2500 µM (lice eggs; [4]): 85%
- inhibition at 5000 µM (lice eggs; [4]): 100%
- inhibition at 10000 µM (lice eggs; Pediculus humanus, 72 h, 10 mM, treated 72 hr post egg laying): 100%
- inhibition at 2500 µM (lice eggs; [5]): 85%
- inhibition at 5000 µM (lice eggs; [5]): 100%
- inhibition at 10000 µM (lice eggs; Pediculus humanus, 96 h, 10 mM, treated 96 hr post egg laying): 100%
- inhibition at 2500 µM (lice eggs; [6]): 89%
- inhibition at 5000 µM (lice eggs; [6]): 93%
- inhibition at 10000 µM (lice eggs; Pediculus humanus, 120 h, 10 mM, treated 120 hr post egg laying): 100%
- inhibition at 2500 µM (lice eggs; [7]): 60%
- inhibition at 5000 µM (lice eggs; [7]): 96%
- inhibition at 10000 µM (lice eggs; Pediculus humanus, 144 h, 10 mM, treated 144 hr post egg laying): 100%
- inhibition of egg hatching (lice eggs; added within 24 hours of hatching): variable inhibition of egg hatching
- inhibition of lice egg hatching in time-course experiments (lice eggs; varying concentrations (10, 5, 2.5 mM), 24-144 hr post egg laying): Significant inhibition; also recorded: significantly inhibit egg hatching in lice at all time points examined
- effect on egg hatching of Helicoverpa armigera (words) ([1]; 10 mM): able to inhibit egg hatching
- inhibition at 1000 µM ([1]; Helicoverpa armigera): 0%
- inhibition at 10000 µM ([1]; Helicoverpa armigera): 44%
- Number hatched ([1]; Table 12, 10 mM): 31
- Number unhatched ([1]; Table 12, 10 mM): 16
